Reference: the NIST ThermoML archive (doi:10.1016/j.tca.2008.07.001)
Numbers after ± are expanded uncertainties.

Tests used:
[1] = refractive index (Na D-line) (dimensionless); settings: 298.15 K; 101.33 kPa; Liquid; Standard Abbe refractometry
[2] = 298.15 K; 101.33 kPa; Liquid; Pycnometric method

Structure (SMILES): CN1CCN(C)C1=O [1,3-dimethyl-2-imidazolidinone]
- refractive index [1]: 1.4712 ± 0.0008
- mass density [2]: 1052.25 ± 1.1 kg/m3
